Measurements taken from ChEMBL document CHEMBL1149398, “Pyrrolizidine esters and amides as 5-HT4 receptor agonists and antagonists” (J Med Chem, 2006).

Columns and labels:
[1] = biological target: T1, Adrenergic receptor alpha-2 (Homo sapiens, UniProt P08913+P18825+P18089); assay: Binding affinity to adrenergic alpha-2 receptor; format: protein assay
T1 sequence (P08913 whole entry): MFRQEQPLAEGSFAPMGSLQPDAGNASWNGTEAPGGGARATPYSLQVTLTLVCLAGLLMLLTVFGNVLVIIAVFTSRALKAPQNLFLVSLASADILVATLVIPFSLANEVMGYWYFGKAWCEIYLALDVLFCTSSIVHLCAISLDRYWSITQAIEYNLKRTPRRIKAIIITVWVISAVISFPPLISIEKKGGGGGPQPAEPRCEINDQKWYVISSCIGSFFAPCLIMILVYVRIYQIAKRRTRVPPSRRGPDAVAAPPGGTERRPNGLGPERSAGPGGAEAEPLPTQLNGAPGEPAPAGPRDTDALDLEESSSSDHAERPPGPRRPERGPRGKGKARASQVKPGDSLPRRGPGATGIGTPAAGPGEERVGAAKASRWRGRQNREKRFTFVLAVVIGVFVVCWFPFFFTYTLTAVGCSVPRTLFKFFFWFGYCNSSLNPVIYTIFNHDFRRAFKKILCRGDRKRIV
T1 sequence (P18825 whole entry): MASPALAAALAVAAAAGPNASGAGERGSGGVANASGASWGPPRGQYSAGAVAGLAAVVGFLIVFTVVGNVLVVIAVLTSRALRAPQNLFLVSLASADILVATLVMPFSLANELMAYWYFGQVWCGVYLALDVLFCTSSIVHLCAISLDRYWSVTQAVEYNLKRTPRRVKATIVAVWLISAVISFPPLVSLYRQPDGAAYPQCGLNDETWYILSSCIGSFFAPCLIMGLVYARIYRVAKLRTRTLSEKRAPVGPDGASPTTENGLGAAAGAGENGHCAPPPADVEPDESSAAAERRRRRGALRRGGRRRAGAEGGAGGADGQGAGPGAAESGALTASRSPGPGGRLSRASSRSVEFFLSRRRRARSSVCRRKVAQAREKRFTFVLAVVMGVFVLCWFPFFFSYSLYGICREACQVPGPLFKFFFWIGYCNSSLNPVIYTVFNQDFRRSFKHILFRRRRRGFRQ
T1 sequence (P18089 whole entry): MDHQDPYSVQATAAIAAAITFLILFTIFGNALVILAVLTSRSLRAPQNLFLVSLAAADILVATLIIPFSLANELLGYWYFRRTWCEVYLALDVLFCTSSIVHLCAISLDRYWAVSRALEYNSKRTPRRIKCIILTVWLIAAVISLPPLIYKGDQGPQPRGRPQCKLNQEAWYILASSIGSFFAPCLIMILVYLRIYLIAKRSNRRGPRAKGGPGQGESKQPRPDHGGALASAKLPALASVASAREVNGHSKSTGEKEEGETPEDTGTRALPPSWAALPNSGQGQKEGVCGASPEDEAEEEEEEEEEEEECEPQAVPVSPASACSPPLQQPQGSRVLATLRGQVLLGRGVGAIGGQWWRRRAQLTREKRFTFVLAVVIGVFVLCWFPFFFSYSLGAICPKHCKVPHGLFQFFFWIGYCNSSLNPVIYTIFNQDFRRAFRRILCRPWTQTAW

[2] = biological target: 5-hydroxytryptamine receptor 4 (Cavia porcellus, UniProt O70528); assay: Displacement of [3H]GR-113808 from 5HT4 receptor in guinea pig striatum
[3] = biological target: Beta-2 adrenergic receptor (Homo sapiens, UniProt P07550); assay: Binding affinity to adrenergic beta-2 receptor
[4] = biological target: D(1A) dopamine receptor (Homo sapiens, UniProt P21728); assay: Binding affinity to dopamine receptor D1
[5] = Binding affinity to 5HT1 receptor
[6] = biological target: D(2) dopamine receptor (Homo sapiens, UniProt P14416); assay: Binding affinity to dopamine receptor D2
[7] = biological target: T2, Adrenergic receptor alpha-1 (Homo sapiens, UniProt P35348+P25100+P35368); assay: Binding affinity to adrenergic alpha-1 receptor; format: protein assay
T2 sequence (P35348 whole entry): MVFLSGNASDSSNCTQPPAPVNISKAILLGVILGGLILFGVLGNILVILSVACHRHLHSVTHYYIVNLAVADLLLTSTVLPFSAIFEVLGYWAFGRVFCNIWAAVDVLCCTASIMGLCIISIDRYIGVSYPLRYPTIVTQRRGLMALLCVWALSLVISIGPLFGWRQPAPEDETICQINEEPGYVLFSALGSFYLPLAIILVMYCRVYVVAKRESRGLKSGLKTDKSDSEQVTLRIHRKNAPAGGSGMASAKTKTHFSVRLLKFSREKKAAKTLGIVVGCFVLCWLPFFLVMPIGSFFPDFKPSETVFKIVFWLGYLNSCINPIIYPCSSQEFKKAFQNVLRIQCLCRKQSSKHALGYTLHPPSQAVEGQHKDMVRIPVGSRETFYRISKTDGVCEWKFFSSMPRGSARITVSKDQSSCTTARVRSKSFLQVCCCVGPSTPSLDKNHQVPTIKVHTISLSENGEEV
T2 sequence (P25100 whole entry): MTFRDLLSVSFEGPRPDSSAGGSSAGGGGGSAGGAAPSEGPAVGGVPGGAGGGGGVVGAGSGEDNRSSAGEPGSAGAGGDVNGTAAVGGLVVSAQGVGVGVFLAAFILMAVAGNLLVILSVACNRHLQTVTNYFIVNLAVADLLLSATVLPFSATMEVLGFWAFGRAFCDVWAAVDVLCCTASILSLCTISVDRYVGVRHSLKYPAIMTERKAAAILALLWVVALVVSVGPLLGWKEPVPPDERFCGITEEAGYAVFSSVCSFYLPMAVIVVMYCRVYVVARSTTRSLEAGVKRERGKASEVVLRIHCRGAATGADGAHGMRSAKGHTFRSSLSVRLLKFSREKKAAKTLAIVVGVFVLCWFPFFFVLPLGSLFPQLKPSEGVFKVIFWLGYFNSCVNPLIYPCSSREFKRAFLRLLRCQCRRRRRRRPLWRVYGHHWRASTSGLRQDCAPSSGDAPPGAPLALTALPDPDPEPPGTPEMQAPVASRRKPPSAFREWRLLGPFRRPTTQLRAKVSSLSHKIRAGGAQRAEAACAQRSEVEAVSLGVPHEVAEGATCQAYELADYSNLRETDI
T2 sequence (P35368 whole entry): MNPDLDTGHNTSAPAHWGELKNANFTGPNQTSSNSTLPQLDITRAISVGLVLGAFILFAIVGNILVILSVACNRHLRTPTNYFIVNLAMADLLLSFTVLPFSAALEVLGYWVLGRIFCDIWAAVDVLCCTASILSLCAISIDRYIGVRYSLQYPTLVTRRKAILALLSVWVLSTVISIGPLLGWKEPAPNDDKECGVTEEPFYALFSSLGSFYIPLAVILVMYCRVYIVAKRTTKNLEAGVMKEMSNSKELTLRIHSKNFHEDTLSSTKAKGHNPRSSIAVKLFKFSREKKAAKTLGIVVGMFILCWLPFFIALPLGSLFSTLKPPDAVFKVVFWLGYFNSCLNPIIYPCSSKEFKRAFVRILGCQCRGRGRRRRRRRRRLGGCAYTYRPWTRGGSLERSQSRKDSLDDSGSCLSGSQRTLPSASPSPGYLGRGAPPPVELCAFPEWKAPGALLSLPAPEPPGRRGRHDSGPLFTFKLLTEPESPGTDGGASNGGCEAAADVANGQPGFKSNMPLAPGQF

Beta-2 adrenergic receptor, sequence (P07550 whole entry): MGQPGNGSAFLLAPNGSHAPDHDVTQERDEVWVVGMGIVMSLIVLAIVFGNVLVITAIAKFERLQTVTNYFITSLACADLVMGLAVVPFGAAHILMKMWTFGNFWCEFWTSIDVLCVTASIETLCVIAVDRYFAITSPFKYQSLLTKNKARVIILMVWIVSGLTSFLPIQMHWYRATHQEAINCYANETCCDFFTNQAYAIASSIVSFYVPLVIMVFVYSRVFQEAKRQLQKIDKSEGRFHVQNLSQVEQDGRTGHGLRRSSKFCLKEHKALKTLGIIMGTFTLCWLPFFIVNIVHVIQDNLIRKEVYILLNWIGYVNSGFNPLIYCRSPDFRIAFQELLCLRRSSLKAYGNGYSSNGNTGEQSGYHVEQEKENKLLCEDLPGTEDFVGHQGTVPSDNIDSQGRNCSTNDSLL
5-hydroxytryptamine receptor 4, sequence (O70528 whole entry): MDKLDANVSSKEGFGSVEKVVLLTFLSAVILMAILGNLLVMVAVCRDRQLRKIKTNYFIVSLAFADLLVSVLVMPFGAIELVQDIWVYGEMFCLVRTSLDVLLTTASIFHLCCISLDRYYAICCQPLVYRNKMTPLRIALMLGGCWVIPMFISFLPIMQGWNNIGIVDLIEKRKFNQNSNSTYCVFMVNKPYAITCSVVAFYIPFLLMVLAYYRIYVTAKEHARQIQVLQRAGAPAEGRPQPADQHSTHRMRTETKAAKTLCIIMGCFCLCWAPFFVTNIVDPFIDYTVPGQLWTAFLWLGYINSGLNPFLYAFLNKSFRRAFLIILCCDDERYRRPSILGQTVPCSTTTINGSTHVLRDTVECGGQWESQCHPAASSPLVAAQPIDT
D(1A) dopamine receptor, sequence (P21728 whole entry): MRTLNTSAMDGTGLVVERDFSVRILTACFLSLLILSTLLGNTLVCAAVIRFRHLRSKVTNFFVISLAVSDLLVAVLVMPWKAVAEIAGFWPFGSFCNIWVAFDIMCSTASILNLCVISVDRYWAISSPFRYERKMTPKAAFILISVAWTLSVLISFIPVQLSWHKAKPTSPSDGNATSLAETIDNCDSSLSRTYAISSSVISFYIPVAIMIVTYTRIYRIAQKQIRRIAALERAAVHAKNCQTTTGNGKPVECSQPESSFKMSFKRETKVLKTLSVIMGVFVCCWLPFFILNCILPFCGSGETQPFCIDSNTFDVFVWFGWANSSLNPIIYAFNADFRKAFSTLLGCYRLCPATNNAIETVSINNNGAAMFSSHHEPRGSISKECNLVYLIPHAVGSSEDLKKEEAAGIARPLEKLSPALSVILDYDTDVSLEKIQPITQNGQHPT
D(2) dopamine receptor, sequence (P14416 whole entry): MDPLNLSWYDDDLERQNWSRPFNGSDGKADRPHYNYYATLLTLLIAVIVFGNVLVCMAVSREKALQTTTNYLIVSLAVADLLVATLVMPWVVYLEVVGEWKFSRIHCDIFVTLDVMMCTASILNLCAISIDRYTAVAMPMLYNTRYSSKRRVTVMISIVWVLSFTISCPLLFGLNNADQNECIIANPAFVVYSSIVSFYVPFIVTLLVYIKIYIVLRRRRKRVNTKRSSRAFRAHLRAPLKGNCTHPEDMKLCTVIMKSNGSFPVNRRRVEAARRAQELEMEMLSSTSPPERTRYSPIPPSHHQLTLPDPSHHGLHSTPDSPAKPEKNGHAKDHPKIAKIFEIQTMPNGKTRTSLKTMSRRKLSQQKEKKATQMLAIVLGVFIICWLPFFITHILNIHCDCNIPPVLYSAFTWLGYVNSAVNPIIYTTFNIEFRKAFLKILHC

Structure (SMILES) | IC50 [1] [µM] | Ki [2] [µM] | IC50 [3] [µM] | IC50 [4] [µM] | IC50 [5] [µM] | IC50 [6] [µM] | IC50 [7] [µM]
O=C(OC[C@@H]1CCN2CCC[C@@H]12)c1[nH]nc2ccccc12 (single isomer, unassigned) | > 10 | 0.0008 | > 10 | > 10 | > 10 | > 10 | > 10
Cn1nc(C(=O)OC[C@@H]2CCN3CCC[C@@H]23)c2ccccc21 (single isomer, unassigned) | > 10 | 0.0004 | > 10 | > 10 | > 10 | > 10 | > 10
COc1cc(N)c(Cl)cc1C(=O)NC[C@@H]1CCN2CCC[C@@H]12 | > 10 | 0.0052 | > 10 | > 10 | > 10 | > 10 | > 10
O=C(NC[C@@H]1CCN2CCC[C@@H]12)c1cc(Cl)cn2ccnc12 | > 10 | 0.0014 | > 10 | > 10 | > 10 | > 10 | > 10

Second part, the molecule after the results:

IC50 [1] [µM] | Ki [2] [µM] | IC50 [3] [µM] | IC50 [4] [µM] | IC50 [5] [µM] | IC50 [6] [µM] | IC50 [7] [µM] | Structure (SMILES)
> 10 | 0.000183 | > 10 | > 10 | > 10 | > 10 | > 10 | O=C(OC[C@@H]1CCN2CCC[C@@H]12)c1c[nH]c2ccccc12
> 10 | 0.029 | > 10 | > 10 | > 10 | > 10 | > 10 | COc1cc(N)c(Cl)cc1C(=O)N[C@@H]1C2CC3CN(C2)CC31 (some centres not stated)
